Results published in the NIST ThermoML archive (doi:10.1021/acs.jced.7b01097).
Numbers after ± are expanded uncertainties.

Details: 3000 kPa, Coriolis flow meter

CCCCCCCCCC [decane]
Details	mass density [kg/m3]
285.3 K, Liquid	736.8 ± 15
313.1 K, Liquid	716.24 ± 14
343.4 K, Liquid	706.6 ± 14
354.5 K, Liquid	682.3 ± 15
373.3 K, Liquid	660.16 ± 13
423.7 K, Liquid	630.21 ± 13
475.8 K, Liquid	588.61 ± 12
523.2 K, Liquid	547.44 ± 12
571.8 K, Liquid	487.16 ± 14
624.2 K, Liquid	365.9 ± 16
673.2 K, Gas	143.74 ± 8.3
700.3 K, Gas	112.44 ± 7
723 K, Gas	96.77 ± 5.3
